We go through eight compounds from publication PMC7744367 (European journal of medicinal chemistry, 2020).

Like-named read-outs stand apart in the source and are kept apart here.

The EC50 is the concentration giving half of the maximal effect.

The test system of data set [1] is CQR Dd2 strain of P. falciparum. The data set is described as follows: microbe, parasite or virus in culture. Type of data set: cell-based.
The next data set concerns CQS 3D7 strain. The data set is described as follows: In vitro antiplasmodial activity, SYBR Green I-based fluorescent assay. Type of data set: cell-based, P. falciparum. To be noted: Plasmodium falciparum, 3D7, 72 h, read-out: Antiplasmodial activity EC50 3D7.
A further data set can be described thus: in vitro. To be noted: human.
Data set [2] relates to tightly synchronized P. falciparum Dd2 cultures. The data set can be described thus: Stage specific action assay. The following applies: 5 × EC50, synchronized Dd2, late schizont/segmenters. Type of data set: cell-based.
Data set [3] concerns P. falciparum Dd2 asynchronous cultures. The data set is described as follows: In vitro killing profile assay. The data set is classed as cell-based. The following applies: 5 × EC50, Dd2, compound washed out, growth monitored 96 h.
The mark [4] stands for this setting: Plasmodium falciparum, DD2, 72 h, read-out: Antiplasmodial activity EC50 Dd2, CQR Dd2 strain, 72 h incubation, at least three independent experiments.

On to `O=C1c2ccccc2C(=O)N1Cc1cn(CCNc2cc(/C=C/c3ccncc3)nc3ccc(Cl)cc23)nn1` [compound 57, (E)-2-((1-(2-((6-chloro-2-(2-(pyridin-4-yl)vinyl)quinolin-4-yl)amino)ethyl)-1H-1,2,3-triazol-4-yl)methyl)isoindoline-1,3-dione], for which the “fold more potent than compound 32” value in data set [1] (Dd2 EC50 ratio) is ~8 fold.
Regarding “(E)-2-((1-(4-((6-chloro-2-styrylquinolin-4-yl)amino)butyl)-1H-1,2,3-triazol-4-yl)methyl)isoindoline-1,3-dione [compound 64]”, in data set [1] (read-out: Antiplasmodial activity EC50 Dd2, CQR Dd2 strain, 72 h incubation, at least three independent experiments), the EC50 amounted to 1000 ± 180 nM.
With `CCN(CC)CCCC(C)Nc1ccnc2cc(Cl)ccc12` (centres unmarked) [CQ, chloroquine], the EC50 worked out at 20 ± 10 nM in the data set on CQS 3D7 strain and 170 ± 20 nM in data set [1] (Plasmodium falciparum, DD2, 72 h, read-out: Antiplasmodial activity EC50 Dd2). In “in vitro”, a half-maximal effect (EC50 at 48 h) was put at 10400 ± 860 nM.
Consider `Clc1ccc2nc(/C=C/c3ccncc3)cc(-n3cc(CN4CCOCC4)nn3)c2c1` [compound 28, (E)-4-((1-(6-chloro-2-(2-(pyridin-4-yl)vinyl)quinolin-4-yl)-1H-1,2,3-triazol-4-yl)-methyl)morpholine], for which the EC50 in data set [1] (setting [4]) was > 8000 nM.
The same measure, in the same setting: next, `O=C1c2ccccc2C(=O)N1Cc1cn(-c2cc(/C=C/c3ccncc3)nc3ccc(Cl)cc23)nn1` [compound 32, (E)-2-((1-(6-chloro-2-(2-(pyridin-4-yl)vinyl)quinolin-4-yl)-1H-1,2,3-triazol-4-yl)methyl)isoindoline-1,3-dione]: > 8000 nM.
In the case of `Clc1ccc2nc(/C=C/c3ccncc3)cc(NCCn3cc(CN4CCOCC4)nn3)c2c1` [compound 53, (E)-6-chloro-N-(2-(4-(morpholinomethyl)-1H-1,2,3-triazol-1-yl)ethyl)-2-(2-(pyridin-4-yl)vinyl)quinolin-4-amine], in data set [1] (Dd2 EC50 ratio), the “fold improved activity over analogue 28” value is “above 5 fold”.
On to `CN1CCN(Cc2cn(-c3cc(/C=C/c4ccncc4)nc4ccc(Cl)cc34)nn2)CC1` [compound 29, (E)-6-chloro-4-(4-((4-methylpiperazin-1-yl)methyl)-1H-1,2,3-triazol-1-yl)-2-(2-(pyridin-4-yl)vinyl)quinoline], for which the EC50 in data set [1] (setting [4]) is > 8000 nM.
On to `Clc1ccc2nc(/C=C/c3ccncc3)cc(NCCCCn3cc(CN4CCCCC4)nn3)c2c1` [compound 60, (E)-6-chloro-N-(4-(4-(piperidin-1-ylmethyl)-1H-1,2,3-triazol-1-yl)butyl)-2-(2-(pyridin-4-yl)vinyl)quinolin-4-amine], for which the “effect on intraerythrocytic development, compound added at 42 h” value in data set [2] was “did not affect the schizont maturation and reinvasion of new merozoites”. The “parasite viability after 24 and 48 h exposure” value in data set [3] was “complete loss of parasite viability”.
